Assays:
[1] = tested on: male mice; conditions: see WO 2008/145996; cited from earlier work
[2] = tested on: male mice; test: Sexual behavior test: number of mounts of male mice on sexually receptive female mice during one hour; format: in vivo
From the text: A “sexually enhancing effect” is defined herein as the effect being observable as an at least 50% increase, more preferably at least 75% increase, in the number of mounts of sexually naive male mice onto sexually receptive female mice (both preferably being of 8 to 10 weeks of age), after a compound has been administered (orally or sub-cutaneously) to the male mice, the male mice are thereafter, each one separately, being introduced to a sexually receptive female mouse; the observed number of mounts being compared with the number of mounts for control male mice (i.e. control mice being male mice of the same age and strain as the treated ones, but which were not administered the compound but otherwise handled in the same way as the treated mice). The observation period shall be 1 h. It is further required that the number of male mice in each one of the treated and non-treated groups amount to at least three, more preferably to at least four, even more preferably to at least five, and most preferably to at least six in each group for the test to be valid; the average number of mounts for the non treated (average_mount_control) and treated (average_mount_treated) during the 1 h observation period are then calculated and the percent increase (Effect) is then being computed as:
Mice of 9 weeks age weighing 30±2 g were used throughout the study. They were all sexually unskilled. At 4 weeks of age they had been separated from their parents and males and females had been placed in separated cages. The mice were fed with pellets enriched with proteins and lipids.
Prior to the tests, male and female mice received specific treatments, as follows: […]
At 3.00 pm, a female mouse was introduced into each cage hosting a male mouse. The number of mounts of the male mouse, defined as a tentative of lateral or dorsal mounting on the female mouse with or without penis intromission, was then counted during a one-hour observation period and used as a simple measure of sexual behavior activity.

Structure (SMILES): COC(=O)CC1C2(C)CC34OC5(C)OC67C(CC(=O)OC6C3(OC(=O)C(C)C)C2OC(=O)C(C)C)C(C)(C(=O)c2ccoc2)CCC7(O5)C14C (stereo not shown) [Compound R306]
- potency to induce a sexual enhancing effect (comparison) [1]: more potent than R310

Structure (SMILES): COC(=O)CC1C2(C)CC34OC5(C)OC67C(CC(=O)OC6C3(O)C2OC(C)=O)C(C)(C(OC(=O)C(F)(F)F)c2ccoc2)CCC7(O5)C14C (stereo not shown) [GL-1203]
- dose at which a clear and significant increase in the mounting frequency was seen (only at this dose) ([2]; subcutaneous in olive oil for three consecutive days, doses tested 0.04, 0.4, 4 mg/kg): 4 mg/kg

Structure (SMILES): COC(=O)CC1C2(C)CC34OC5(C)OC67C(CC(=O)OC6C3(O)C2OC(=O)C(C)C)C(C)(C(=O)c2ccoc2)CCC7(O5)C14C (stereo not shown) [SAE5]
- dose at which clear and significant increases in number of mounts were seen already ([2]; oral in olive oil for three consecutive days, doses tested 0.004-4 mg/kg): 0.04 mg/kg
- maximum number of mounts over the one hour observation period (average) ([2]; oral, 4 mg/kg for three consecutive days, D-4): 37 mounts

— US9403841B2, “Phragamalin limonoids for the treatment of sexual dysfunction” (DICOTYLEDON AB, priority 2012, dated 2016)
